According to patent publication US8324222B2, “Cyclically substituted furopyrimidine derivatives and use thereof” (Bayer Intellectual Property GmbH, priority 2005, dated 2012):

Legend:
[1] = biological target: T1, prostacyclin receptors (IP receptors) of human thrombocyte membranes (Homo sapiens, UniProt P43119); experiment: Binding to prostacyclin receptors (IP receptors) of human thrombocyte membranes (3H-Iloprost displacement); conditions: 3 nM 3H-Iloprost, 60 min, room temperature
T1 construct: 300-1000 μg/ml human thrombocyte membranes per charge; tissue Maco Pharma, Langen (buffy coats); host or cells: human thrombocyte (platelet) membranes prepared from human blood buffy coats
T1 sequence (P43119 whole entry): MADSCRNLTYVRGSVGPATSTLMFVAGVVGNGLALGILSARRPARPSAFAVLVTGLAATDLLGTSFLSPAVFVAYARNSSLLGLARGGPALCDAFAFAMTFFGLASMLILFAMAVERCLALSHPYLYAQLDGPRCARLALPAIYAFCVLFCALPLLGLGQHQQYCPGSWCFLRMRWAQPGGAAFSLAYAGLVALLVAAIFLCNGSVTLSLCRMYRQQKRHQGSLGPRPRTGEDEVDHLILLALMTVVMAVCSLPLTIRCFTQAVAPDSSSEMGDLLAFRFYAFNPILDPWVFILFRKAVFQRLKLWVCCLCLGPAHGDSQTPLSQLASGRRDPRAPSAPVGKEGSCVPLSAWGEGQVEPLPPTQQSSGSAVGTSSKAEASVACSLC
Protocol: B-1. Studies of Binding to Prostacyclin Receptors (IP Receptors) of Human Thrombocyte Membranes
Thrombocyte membranes are obtained by centrifuging 50 ml human blood (Buffy coats with CDP Stabilizer, from Maco Pharma, Langen) for 20 min at 160×g. Remove the supernatant (platelet-rich plasma, PRP) and then centrifuge again at 2000×g for 10 min at room temperature. Resuspend the sediment in 50 mM tris-(hydroxymethyl)-aminomethane, which has been adjusted to a pH of 7.4 with 1 N hydrochloric acid, and store at −20° C. overnight. On the next day, centrifuge the suspension at 80000×g and 4° C. for 30 minDiscard the supernatant. Resuspend the sediment in 50 mM tris-(hydroxymethyl)-aminomethane/hydrochloric acid, 0.25 mM ethylene diamine tetraacetic acid (EDTA), pH 7.4, and then centrifuge once again at 80000×g and 4° C. for 30 min. Take up the membrane sediment in binding buffer (50 mM tris-(hydroxymethyl)-aminomethane/hydrochloric acid, 5 mM magnesium chloride, pH 7.4) and store at −70° C. until the binding test.
For the binding test, incubate 3.nM ^3H-Iloprost (592 GBq/mmol, from AmershamBioscience) for 60 min with 300-1000 μg/ml human thrombocyte membranes per charge (max. 0.2 ml) in the presence of the test substances at room temperature. After stopping, add cold binding buffer to the membranes and wash with 0.1% bovine serum albumin. After adding Ultima Gold Scintillator, quantify the radioactivity bound to the membranes using a scintillation counter. The nonspecific binding is defined as radioactivity in the presence of 1 μM Iloprost (from Cayman Chemical, Ann Arbor) and is as a rule <25% of the bound total radioactivity. The binding data (IC50 values) are determined using the program GraphPad Prism Version 3.02.

[2] = rapid non-enzymatic transformation to inactive metabolite 6-keto-prostaglandin-F1alpha; cited from earlier work

Row | Structure (SMILES) | IC50 [1] | half-life [2]
1 | COc1ccc(-c2c(-c3ccccc3)oc3ncnc(Nc4cccc(/C=C/C(=O)O)c4)c23)cc1 [Example 21, (2E)-3-(3-{[5-(4-Methoxyphenyl)-6-phenylfuro[2,3-d]pyrimidin-4-yl]amino}phenyl)acrylic acid] | 0.011 µM | –
2 | COc1ccc(-c2c(-c3ccccc3)oc3ncnc(O[C@H]4CCC[C@@H](OCC(=O)O)C4)c23)cc1 (single isomer, unassigned) [Example 68] | 0.034 µM | –
3 | COc1ccc(-c2c(-c3ccccc3)oc3ncnc(O[C@H]4CCC[C@H](OCC(=O)O)C4)c23)cc1 (racemic) [Example 69] | 0.008 µM | –
4 | CCCCC[C@H](O)/C=C/[C@@H]1[C@H]2C/C(=C/CCCC(=O)O)O[C@H]2C[C@H]1O [PGI2, Prostacyclin] | – | approx. 3 minutes
5 | COc1ccc(-c2c(-c3ccccc3)oc3ncnc(OC4CCCN(CCCC(=O)O)C4)c23)cc1 (centres unmarked) [Example 84] | 0.152 µM | –
6 | CCc1ccc(-c2c(-c3ccccc3)oc3ncnc(O[C@@H]4C=C[C@@H](OCC(=O)O)C4)c23)cc1 [Example 175] | 0.013 µM | –
7 | COc1ccc(-c2c(-c3ccccc3)oc3ncnc(N[C@H]4CCC[C@H](OCC(=O)O)C4)c23)cc1 [Example 87] | 0.017 µM | –
8 | COc1ccc(-c2c(-c3ccccc3)oc3ncnc(O[C@@H]4CCCN(CCc5nnn[nH]5)C4)c23)cc1 [Example 99] | 0.034 µM | –
9 | O=C(O)CO[C@@H]1CCC[C@H](Oc2ncnc3oc(-c4ccccc4)c(-c4ccc(Cl)cc4)c23)C1 [Example 156] | 0.293 µM | –
10 | O=C(O)COc1cccc(Nc2ncnc3oc(-c4ccccc4)c(-c4ccc(F)cc4)c23)c1 [Example 6, 3-{[5-(4-Fluorophenyl)-6-phenylfuro[2,3-d]pyrimidin-4-yl]amino}phenoxyacetic acid] | 0.237 µM | –
11 | COc1ccc(-c2c(-c3ccccc3)oc3ncnc(N[C@H]4CC[C@@H](OCC(=O)O)C4)c23)cc1 [Example 168] | 0.071 µM | –
12 | CCc1ccc(-c2c(-c3ccccc3)oc3ncnc(N[C@@H]4C=C[C@@H](OCC(=O)O)C4)c23)cc1 [Example 176] | 0.024 µM | –
13 | COC(=O)CCCN1CCC[C@@H](Oc2ncnc3oc(-c4ccccc4F)c(-c4ccc(OC)cc4)c23)C1 [Example 183, 4-[(3R)-3-{[6-(2-Fluorophenyl)-5-(4-methoxyphenyl)furo[2,3-d]pyrimidin-4-yl]oxy}piperidin-1-yl]butyric acid methyl ester] | 0.218 µM | –
14 | COc1ccc(-c2c(-c3ccccc3)oc3ncnc(O[C@H]4CC[C@H](OCC(=O)O)C4)c23)cc1 [Example 162] | 0.037 µM | –
15 | CCc1ccc(-c2c(-c3ccccc3)oc3ncnc(O[C@@H]4CCCN(CCCC(=O)O)C4)c23)cc1 [Example 154] | 0.028 µM | –
16 | COc1ccc(-c2c(-c3ccccc3)oc3ncnc(O[C@H]4CCC[C@@H](OCC(=O)O)C4)c23)cc1 (single isomer, unassigned) [Example 67] | 0.388 µM | –
17 | COC(=O)COc1cccc(Nc2ncnc3oc(-c4ccccc4)c(-c4ccc(OC)cc4)c23)c1 [Example 9, 3-{[5-(4-methoxyphenyl)-6-phenylfuro[2,3-d]pyrimidin-4-yl]amino}phenoxyacetic acid methyl ester] | 0.043 µM | –
18 | CCc1ccc(-c2c(-c3ccccc3F)oc3ncnc(O[C@@H]4CCCN(CCCC(=O)O)C4)c23)cc1 [Example 181, 4-[(3R)-3-{[5-(4-Ethylphenyl)-6-(2-fluorophenyl)furo[2,3-d]pyrimidin-4-yl]oxy}piperidin-1-yl]-butyric acid] | 0.027 µM | –
19 | CCc1ccc(-c2c(-c3ccccc3)oc3ncnc(O[C@@H]4CCCN(CCCC(=O)O)C4)c23)cc1F (single isomer, unassigned) [Example 159] | 0.083 µM | –
20 | COc1ccc(-c2c(-c3ccccc3)oc3ncnc(Oc4ccc(CCC(=O)O)cc4)c23)cc1 [Example 24, 3-(4-{[5-(4-Methoxyphenyl)-6-phenylfuro[2,3-d]pyrimidin-4-yl]oxy}phenyl)propanoic acid] | 0.015 µM | –
21 | COc1ccc(-c2c(-c3ccccc3)oc3ncnc(N[C@@H]4CC[C@@H](OCC(=O)O)C4)c23)cc1 [Example 170] | 0.006 µM | –
22 | COc1ccc(-c2c(-c3ccccc3)oc3ncnc(Nc4cccc(OCC(=O)O)c4)c23)cc1 [Example 10, 3-{[5-(4-Methoxyphenyl)-6-phenylfuro[2,3-d]pyrimidin-4-yl]amino}phenoxyacetic acid] | 0.018 µM | –
23 | CCc1ccc(-c2c(-c3ccccc3)oc3ncnc(N[C@H]4CCC[C@H](OCC(=O)O)C4)c23)cc1 (racemic) [Example 146] | 0.02 µM | –
